# Test system: SEM cells
# Experiment: cell viability relative to DMSO control; higher = less cytotoxic
# Conditions: 48 h
# Method in brief: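 NOMO1, SEM and P12-Ichikawa leukemia cells spent at least four passages adapting to each medium before use. They were seeded at 500 cells/well (NOMO1, SEM) or 1000 cells/well (P12-Ichikawa) in 5 μl in 1536-well plates and pin-dosed with library compounds in DMSO at 11 threefold steps from 47 μM down to 0.79 nM. After 48 h at 37°C, CellTiter-Glo One luminescence was read. Viability is reported as a percentage of the DMSO wells on each plate, with cell-free wells as background.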
# [1] = HPLM + 10% dialyzed FBS, 0.000781 µM
# [2] = HPLM + 10% dialyzed FBS, 0.00234 µM
# [3] = HPLM + 10% dialyzed FBS, 0.00702 µM
# [4] = HPLM + 10% dialyzed FBS, 0.0211 µM
# [5] = HPLM + 10% dialyzed FBS, 0.0632 µM
# [6] = HPLM + 10% dialyzed FBS, 0.19 µM
# [7] = HPLM + 10% dialyzed FBS, 0.569 µM
# [8] = HPLM + 10% dialyzed FBS, 1.71 µM
# [9] = HPLM + 10% dialyzed FBS, 5.12 µM
# [10] = HPLM + 10% dialyzed FBS, 15.4 µM
# [11] = HPLM + 10% dialyzed FBS, 46.1 µM
# [12] = RPMI 5 mM glucose + 10% FBS, 0.000781 µM
# [13] = RPMI 5 mM glucose + 10% FBS, 0.00234 µM
# [14] = RPMI 5 mM glucose + 10% FBS, 0.00702 µM
# [15] = RPMI 5 mM glucose + 10% FBS, 0.0211 µM
# [16] = RPMI 5 mM glucose + 10% FBS, 0.0632 µM
# [17] = RPMI 5 mM glucose + 10% FBS, 0.19 µM
# [18] = RPMI 5 mM glucose + 10% FBS, 0.569 µM
# [19] = RPMI 5 mM glucose + 10% FBS, 1.71 µM
# [20] = RPMI 5 mM glucose + 10% FBS, 5.12 µM
# [21] = RPMI 5 mM glucose + 10% FBS, 15.4 µM
# [22] = RPMI 5 mM glucose + 10% FBS, 46.1 µM
# [23] = RPMI 5 mM glucose + 10% dialyzed FBS, 0.000781 µM
# [24] = RPMI 5 mM glucose + 10% dialyzed FBS, 0.00234 µM
# [25] = RPMI 5 mM glucose + 10% dialyzed FBS, 0.00702 µM
# [26] = RPMI 5 mM glucose + 10% dialyzed FBS, 0.0211 µM
# [27] = RPMI 5 mM glucose + 10% dialyzed FBS, 0.0632 µM
# [28] = RPMI 5 mM glucose + 10% dialyzed FBS, 0.19 µM
# [29] = RPMI 5 mM glucose + 10% dialyzed FBS, 0.569 µM
# [30] = RPMI 5 mM glucose + 10% dialyzed FBS, 1.71 µM
# [31] = RPMI 5 mM glucose + 10% dialyzed FBS, 5.12 µM
# [32] = RPMI 5 mM glucose + 10% dialyzed FBS, 15.4 µM
# [33] = RPMI 5 mM glucose + 10% dialyzed FBS, 46.1 µM
SMILES,cell viability [1] [%],cell viability [2] [%],cell viability [3] [%],cell viability [4] [%],cell viability [5] [%],cell viability [6] [%],cell viability [7] [%],cell viability [8] [%],cell viability [9] [%],cell viability [10] [%],cell viability [11] [%],cell viability [12] [%],cell viability [13] [%],cell viability [14] [%],cell viability [15] [%],cell viability [16] [%],cell viability [17] [%],cell viability [18] [%],cell viability [19] [%],cell viability [20] [%],cell viability [21] [%],cell viability [22] [%],cell viability [23] [%],cell viability [24] [%],cell viability [25] [%],cell viability [26] [%],cell viability [27] [%],cell viability [28] [%],cell viability [29] [%],cell viability [30] [%],cell viability [31] [%],cell viability [32] [%],cell viability [33] [%]
CC(C)(C)c1cc(C=C(C#N)C#N)cc(Br)c1O,87,109,42.3,114,111,109,114,110,111,108,104,65.4,72.7,11.9,67.3,90.6,81.4,83.8,77.4,71.5,77.7,77.5,87.3,98.8,35.7,111,108,123,119,107,105,115,90.7
Cn1cc(-c2ccc3nnc(C(F)(F)c4ccc5ncccc5c4)n3n2)cn1,103,117,115,99.6,111,108,113,106,106,95.4,82,123,115,120,112,126,132,126,123,114,121,81.5,96,114,104,102,105,111,98.6,97.2,94.8,90.5,67.2
CNC1[C@@H](O)C(O[C@@H]2C(O)C(O[C@H]3O[C@H]([C@@H](C)NC)CC[C@H]3N)[C@@H](N)C[C@H]2N)OC[C@]1(C)O (stereo partly drawn),99.8,96.4,99.2,95.1,113,106,93.2,97.7,92.9,88.5,80.8,105,120,94.2,101,92.2,103,97.9,83.3,90.4,86.1,98,102,101,98.4,106,99.3,104,106,108,85.7,114,91.7
CC(=O)Nc1ccc([C@H](C)C(=O)Nc2ncc(C(C)C)s2)cc1,98.9,102,106,95.9,104,105,105,95.1,61.9,8.42,4.85,107,112,132,121,117,108,123,114,76,8.73,4.33,95.6,79.1,97.4,97.2,109,97.2,110,99.2,64.6,8.82,4.36
O=C1Nc2cc(Br)ccc2/C1=C1/Nc2ccccc2/C1=N\O,109,102,110,100,108,78.5,66.5,31.5,4.61,3.01,1.68,87.2,113,110,95.3,98.4,98.8,60,21.3,2.47,1.39,0.712,111,102,89.9,99.4,90.5,69.9,64.9,34.8,4.53,2.51,1.3
OCc1ccc(-c2nn(Cc3ccccc3)c3ccccc23)o1,115,128,124,111,113,113,117,38.1,96.1,44.6,19.3,116,110,126,100,119,107,98.1,18.2,80.9,37.4,11.2,–,–,–,–,–,–,–,–,–,–,–
OC[C@H](Cc1ccccc1)Nc1nc(Oc2ccc3c(c2)CCC3)nc2c1ncn2Cc1ccc(-c2ccccc2)cc1,90.7,101,98.5,107,108,78.4,105,99.2,103,80.3,62.9,85.3,85.9,91.7,93.8,89.5,89.2,95,97.9,94.7,80.7,76.7,80,97.8,94.3,89.5,92.4,89.2,100,101,88.5,84.4,69.9
CO[C@H]1C[C@@H]2CC[C@@H](C)[C@@](O)(O2)C(=O)C(=O)N2CCCC[C@H]2C(=O)O[C@H]([C@H](C)C[C@@H]2CC[C@@H](OC(=O)C(C)(CO)CO)[C@H](OC)C2)CC(=O)[C@H](C)/C=C(\C)[C@@H](O)[C@@H](OC)C(=O)[C@H](C)C[C@H](C)/C=C/C=C/C=C/1C,80.2,93.3,88,77.7,76.5,74.5,64.7,55.4,57.7,49.1,41.6,71.2,78.2,70.1,61.6,60.5,56.3,57.7,52.4,50.5,27.3,15.7,87.4,97.1,91.2,73.1,84.6,83.1,64.4,61.8,67.4,58.4,23.2
C[C@@H](O)[C@@H]1[C@H]2[C@@H](C)\C(=C(/N2C1=O)C(=O)OCOC(=O)C(C)(C)C)SC3CN(C3)/C4=N/CCS4,74.8,95.7,99.2,112,117,102,101,108,107,97.2,82.1,88.7,114,119,117,101,116,111,125,117,109,72.8,82.5,109,120,113,122,138,106,113,121,121,85.9
CN(C)CCc1c[nH]c2ccc(C[C@H]3COC(=O)N3)cc12,72,89.4,97.7,95.1,99.3,108,96,88.2,72.9,29.7,7.45,78.3,85.5,89,97,90.9,88.7,88.2,73.8,47.8,13.3,5.94,88.8,94,89.5,99.8,95.7,96.3,93.7,80.8,75.6,26,7.13
CC(=O)N1CCN(c2ccc(OC[C@H]3CO[C@](Cn4ccnc4)(c4ccc(Cl)cc4Cl)O3)cc2)CC1,98.3,97.8,104,95.2,107,26.4,90.9,92.8,21.5,87.1,86.4,124,136,121,125,134,28,113,104,14.1,90.5,48.5,–,–,–,–,–,–,–,–,–,–,–
COc1cc(O)c2c(c1)C1OC1C[C@H](O)[C@H](O)C(=O)/C=C\C[C@H](C)OC2=O (stereo partly drawn),95.5,93.1,111,108,125,125,101,114,55.5,31.4,7.96,101,103,108,86.9,114,108,117,101,58,30.7,4.26,101,119,117,127,109,121,102,110,47.6,24.4,5.3
O=C(NC[C@H](O)CN1CCc2ccccc2C1)c1cc(NC2COC2)ncn1,58.8,84.9,91.5,81.6,86.3,75,68.5,71.6,78.4,68.6,26.9,71.9,145,124,141,132,121,108,108,114,88.5,47.2,59,107,100,91.1,73.8,81,80.5,75.2,84.2,65.1,25.2
CC1(C)OC2CC3C4CC(F)C/5=C/C(=O)/C=C\C5(C)C4C(O)CC3(C)[C@@]2(O1)C(=O)CO (stereo partly drawn),97.4,95.3,95.6,102,94.6,85.9,77.2,65.9,65.7,33.9,71.1,91.4,98.9,104,105,101,77.5,60.7,56,59.6,20.5,60.3,109,95.4,122,125,106,78,75.4,62.7,55.9,26,61.6
CC(=O)C\1=C(/C)C2=CN=C(NC3=CC=C(C=N3)N4CCNCC4)N=C2N(C5CCCC5)C1=O,124,125,107,125,119,109,80.6,68.1,59.6,60.8,27.5,114,119,133,113,126,126,100,80.5,61.6,59.9,22.2,125,107,130,122,127,99.2,86.8,74.4,68.5,63.6,29.2

# From the supplement of paper PMC11451515
